The target in one assay is T1, PRPK/TPRKB (Homo sapiens, UniProt Q96S44+Q9Y3C4).
T1 construct: host or cells: HEK-293FT
The assay is described as follows: Competition for PRPK/TPRKB binding to the pomalidomide-based affinity reagent (affigel pulldown). To be noted: FIG. 4; excess free competitor. As to the method: Cell lysates were prepared from 2×10^8 Jeko-1, Jurkat, or HS-Sultan cells or 5×10^7 HeLa S3 cells per pulldown sample by lysis in 2 mL Buffer B (50 mM HEPES pH 7.5, 5% glycerol, 1.5 mM MgCl2, 150 mM NaCl, 1 mM Na3VO4, 25 mM NaF, 0.4% Nonidet P-40, 1 mM DTT, and 1 Complete Mini EDTA-free protease inhibitor tablet per 10-25 mL Buffer B). Lysates were incubated on ice for 30 mM, followed by 2× freeze-thaw using liquid N2 and 37° C. water bath in polypropylene tubes. Samples were centrifuged at 1800 rpm for 5 mM at 4° C. Supernatants were ultracentrifuged at 55,000 rpm for 1 hr at 4° C. Supernatants were collected and pre-cleared with 10 μL control affigel reagent (affigel-ethanolamine or affigel-PEG linker) by incubation on a rotator for 30 mM at 4° C. Pre-cleared lysates were transferred to Mobicol 1 mL columns with 90 μm pore size frit on ice and centrifuged at 0.1 rcf for 10 sec to separate affigel beads from lysates. Incubations with pre-cleared lysates and excess pomalidomide were performed at a 20-fold excess competitor concentration (500 μM final concentration) on a rotator for 30 mM at 4° C. Subsequently, 10 μL control or pomalidomide-based affigel reagents were added to each sample and pulldowns were performed for 1 hr at 4° C. Lysates and affigel reagents were transferred to Mobicol 1 mL columns with 90 μm pore size frit and affigel beads were washed 3× with 800 μL Buffer B and 2× with 800 μL Buffer A (Buffer B not including 0.4% Nonidet P-40). Columns were centrifuged for 30 sec at 0.1 rcf to remove any remaining wash buffer and then closed with lower plug. Columns were placed in 1.5 mL Low-binding Eppendorf tubes and heated at 50° C. for 30 mM in 40 uL 2×SDS sample buffer with 10 mM DTT to elute bound proteins from affigel reagents. Columns were then opened and eluents were collected in the low-binding Eppendorf tubes by 15 sec centrifugation at 1600 rpm. Samples were applied and resolved on 4-12% SDS-PAGE gels followed by silver staining (SilverQuest Kit, Invitrogen, Carlsbad, Calif.). Bands which were competed by excess actimid competitor but not by DMSO were excised and identified by LC/MS/MS analysis at the Beth Israel Deaconess Medical Center Mass Spectrometry Core Facility (Boston, Mass.).
C-term Myc-DDK tagged PRPK and C-term Myc-DDK tagged TPRKB proteins were transiently overexpressed from cDNAs (obtained from Origene, Rockville, Md.) in HEK-293FT cells using FuGENE-6 transfection reagent according to the manufacturer's protocol (Roche, Indianapolis, Ind.). One day prior to transfection, 2.5×10^6 HEK-293FT cells were plated per p100 dish. Cells were lysed 48 hr post-transfection in 1-2 mL Buffer B per p100 dish per sample. […] The amount of PRPK and TPRKB captured by each affinity reagent was determined by silver stain and anti-DDK (anti-DDK monoclonal antibody, Origene) Western blot. Competition experiments were also performed using a variety of compounds and derivatives (pomalidomide, lenalidomide, thalidomide, CMPD 31, CMPD 30, CMPD 29).

The subject of the next assay is B cell growth. As to the kind of experiment: Growth inhibition assay, inhibition with CMPD 31. In kind it is cell-based. Conditions: FIG. 8; CMPD 31 at final concentration of 10 μM. On the procedure:
This protocol describes the technique to perform growth inhibition assays in 96-well format. This assay was used to calculate growth inhibition IC50 values of lenalidomide, pomalidomide, all derivatives and inhibition with CMPD31.
Cell lines Jurkat, NCI-H929, and JeKo-1 were obtained from ATCC and were maintained by vendor-specified media requirements. Cells were plated in 96-well plates at 3,750 cells per well (Jeko-1, HS-Sultan) or 5,000 cell per well (NCI-H929) in 90 μL of assay growth medium (RPMI-1640, 10% FBS, 1% pen-strep). Cells in plates were allowed to incubate at room temperature for one hour and then transferred to an incubator set at 37° C. and 5% CO2 humidified air overnight.
Compounds were serially diluted 3-fold in 100% DMSO into duplicate 10-point dose curves using a Biomek FX liquid handler in columns 2 through 11 of a 96-well U-bottom plate. Starting concentrations of compounds was 10 mM. Daughter plates containing 2 μL of the compound dose curves were stamped and stored at −80 C. […]
Compound and control daughter plates were diluted 100-fold in 200 μl of assay growth medium and then finally diluted 10-fold more into the 96-well cell plates; a final dilution of 1000-fold in 0.1% DMSO for all wells. […] Plates were incubated for 2 hours at 37° C. in 5% CO2 and then plates were read on a Perkin Elmer Victor^3 V plate reader with excitation at 560 nm and emission at 590 nm. […]

For assay [1], the system named is IL-2 production by Jurkat and PBMCs. The assay is described as follows: IL-2 production assay, inhibition with CMPD 31. In kind it is cell-based, human. Conditions: FIG. 8; CMPD 31 at final concentration of 10 μM. From the text: This protocol describes the technique to detect the amount of IL-2 produced by Jurkat and PBMCs in 96-well format. This assay was used to calculate IL-2 production EC50 values of lenalidomide, pomalidomide, all derivatives and inhibition with CMPD 31.
Logarithmically growing Jurkat cells from ATCC (clone E6-1) or frozen and thawed human PBMCs from Astarte (Peripheral Blood Mononuclear Cells, normal Donor 41) were resuspended at 1×10^6 cells/mL in RPMI-1640 medium containing 10% FBS and 1% antibiotic/antimycotic solution. Cells were plated into each well of a 96-well anti-CD3 plate (Becton Dickinson catalogue number #354725) at 1×10^5 cells/100 μl per well. […]
Compound daughter plates were resuspended in 200 μL of RPMI-1640 medium as a 10× stock and then 20 μL of the 10× stock was added to each anti-CD3 antibody assay plate well with a final volume of 200 μl by the addition of 80 μl of complete media. […] The amount of IL-2 produced was determined by an ELISA assay and was performed in one of two ways as per manufacturer instructions; by a standard ELISA (Enzyme-Linked Immunosorbent Assay) protocol method (Becton Dickinson) or an AlphaLISA protocol (Perkin Elmer). […]

Assay [2] relates to natural killer cells in PBMCs. The assay is described as follows: Natural killer cell assay (DELFIA NK lytic activity). In kind it is cell-based, human. Conditions: FIG. 9; anti-CD3 stimulated PBMCs, 72 hours. On the procedure: On the day of initial treatment, cryopreserved peripheral blood mononuclear cells from a healthy donor (PBMCs; Astarte Biologics) were thawed in RPMI-1640 containing 10% fetal bovine serum, 1% penicillin-streptomycin and 25 mM HEPES buffer (complete medium) at 37° C. PBMCs were centrifuged two times at 1000 rpm to remove residual DMSO and debris and counted on a haemocytometer. Cells were used at a final cell density of 1×10^6 cells per mL in complete medium. […]
Following the 72 hour treatment, NK cells were assayed for lytic activity using the DELFIA cell cytoxicity assay from Perkin-Elmer according to manufacturer's instructions. […] K562 cells were resuspended in DMEM containing 10% fetal bovine serum and 1% penicillin-streptomycin, counted on a hemacytometer and diluted to 1×10^6 cells per mL. […] Europium solution (200 μL) was added to the supernatants and the plate was placed on a Wallac Victor microplate reader. Following a 15 minute orbital shake at high speed, the plate was read using time-resolved fluorescence (Excitation at 340 nm, Emission at 615 nm; delay 400 μsec; counting window 400 μsec, cycle 1000 μsec). […]

Structures are written as SMILES.

The source of these data is patent US9193989B2, “PRPK-TPRKB modulators and uses thereof” (TAIHO PHARMACEUTICAL CO., LTD., priority 2010, dated 2015).

T1 sequence (Q96S44 whole entry, other chains not shown): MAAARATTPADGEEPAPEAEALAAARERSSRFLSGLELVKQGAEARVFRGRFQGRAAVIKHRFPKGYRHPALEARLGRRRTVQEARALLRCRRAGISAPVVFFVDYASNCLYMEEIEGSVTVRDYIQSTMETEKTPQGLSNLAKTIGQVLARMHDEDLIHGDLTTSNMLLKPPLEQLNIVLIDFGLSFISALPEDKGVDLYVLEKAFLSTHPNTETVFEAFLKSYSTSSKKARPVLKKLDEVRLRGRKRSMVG

For the compound `CN1C(=O)CCC(N2C(=O)c3cccc(N)c3C2=O)C1=O` (stereo not shown) [CMPD 29, 4-Amino-2-(1-methyl-2,6-dioxopiperidin-3-yl)isoindoline-1,3-dione], the “compete for PRPK/TPRKB target binding to the pomalidomide-based affinity reagent” value (“compete for PRPK/TPRKB target binding” for short) on PRPK/TPRKB is recorded as “compete”.

Turning to `Nc1cccc2c1C(=O)N([C@H]1CCC(=O)NC1)C2=O` [CMPD 30, (S)-4-Amino-2-(6-oxopiperidin-3-yl)isoindoline-1,3-dione], on PRPK/TPRKB, the “compete for PRPK/TPRKB target binding” value is “does not”.

For `Nc1ccc2c(c1)C(=O)N(C1CCC(=O)NC1=O)C2=O` (stereo not shown) [CMPD 31], in the assay with B cell growth, the “suppression of the activity of lenalidomide and pomalidomide in inhibition of B cell growth” value is given as “suppresses”. In addition, the “suppression of the activity of lenalidomide and pomalidomide in induction of IL-2 production” value in assay [1] is listed as “suppresses”. The “compete for PRPK/TPRKB target binding” value on PRPK/TPRKB is on record as “compete”.

With `Nc1cccc2c1CN(C1CCC(=O)NC1=O)C2=O` (stereo not shown) [lenalidomide], the “compete for PRPK/TPRKB target binding” value on PRPK/TPRKB is on record as “compete”. The “natural killer cell activation in PBMCs” value in assay [2] is on record as “activation”.

As to `Nc1cccc2c1C(=O)N(C1CCC(=O)NC1=O)C2=O` (stereo not shown) [pomalidomide], the “compete for PRPK/TPRKB target binding” value at PRPK/TPRKB is listed as “compete”. Besides, the “natural killer cell activation in PBMCs” value in assay [2] was “activation”.

Take `O=C1CCC(N2C(=O)c3ccccc3C2=O)C(=O)N1` (stereo not shown) [thalidomide]: the “compete for PRPK/TPRKB target binding” value on PRPK/TPRKB is “compete”.
